Measured values: PubChem BioAssay (NCI)
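Values below derive from 48-hour exposures of cells grown in 96-well plates, with endpoints linearly interpolated between the two concentrations bracketing the appropriate inhibition level. The concentration for 50% growth inhibition is given as GI50. TGI: concentration producing complete growth inhibition.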

Experiments:
Assay in all cases: DTP human tumour cell line panel, 48 h
COLO 205 colon = test system: COLO 205 colon
HCT-116 colon = test system: HCT-116 colon
NCI-H226 lung = test system: NCI-H226 lung
NCI-H522 lung = test system: NCI-H522 lung
NCI/ADR-RES ovarian = test system: NCI/ADR-RES ovarian
OVCAR-5 ovarian = test system: OVCAR-5 ovarian
RXF 393 renal = test system: RXF 393 renal
SK-MEL-5 melanoma = test system: SK-MEL-5 melanoma
T-47D breast = test system: T-47D breast
TK-10 renal = test system: TK-10 renal

SMILES | TGI (COLO 205 colon) | TGI (HCT-116 colon) | TGI (NCI-H226 lung) | TGI (NCI-H522 lung) | TGI (NCI/ADR-RES ovarian) | TGI (OVCAR-5 ovarian) | TGI (RXF 393 renal) | TGI (SK-MEL-5 melanoma) | TGI (T-47D breast) | TGI (TK-10 renal) | GI50 (COLO 205 colon) | GI50 (HCT-116 colon) | GI50 (NCI-H226 lung) | GI50 (NCI-H522 lung) | GI50 (NCI/ADR-RES ovarian) | GI50 (OVCAR-5 ovarian) | GI50 (RXF 393 renal) | GI50 (SK-MEL-5 melanoma) | GI50 (T-47D breast) | GI50 (TK-10 renal)
O=c1c2ccccc2c2ccccc2c(=O)n1-c1cc2c3ccccc3ccc2c2ccccc12 | > 100 µM | > 100 µM | > 100 µM | > 100 µM | > 100 µM | > 100 µM | > 100 µM | > 100 µM | > 100 µM | > 100 µM | – | – | – | – | – | – | – | – | – | –
CSc1nc2c(c(=O)[nH]1)N=C1c3ccccc3C(=O)C1C(c1ccc(F)cc1)N2 (stereo not given) | > 100 µM | 19.9 µM | 45.6 µM | 37.9 µM | 33.1 µM | 41.1 µM | 36.6 µM | 66.6 µM | 94.6 µM | 37.6 µM | 13 µM | 7.23 µM | 15.3 µM | 3.17 µM | 6.42 µM | 17.7 µM | 14.5 µM | 6.13 µM | 14.2 µM | 12.9 µM
O=C(/C=C/c1ccc(OCC(=O)N2CCN(c3ccccc3)CC2)cc1)c1ccc(Cl)cc1 | > 100 µM | > 100 µM | 97.9 µM | > 100 µM | > 100 µM | > 100 µM | 55.1 µM | > 100 µM | > 100 µM | > 90.6 µM | – | – | – | – | – | – | – | – | – | –
CCCC[C@H]1C(=O)O[C@H](C)[C@H](NC(=O)c2cccc(NC=O)c2O)C(=O)O[C@@H](C)[C@@H]1OC(=O)CC(C)C | 31.6 µM | 19.5 µM | 23.8 µM | 31.6 µM | 65.6 µM | 39 µM | 24.6 µM | 16.8 µM | 44.8 µM | 50.6 µM | – | – | – | – | – | – | – | – | – | –
C=C1C(=O)O[C@H]2[C@H]1CC/C(COC(=O)NCc1cc3ccccc3[nH]1)=C\CC[C@@]1(C)O[C@@H]21 | 3.59 µM | 2.77 µM | 3.15 µM | 3.29 µM | 8.06 µM | 5.12 µM | 2.36 µM | 9.71 µM | 4.33 µM | 4.19 µM | 1.8 µM | 1.37 µM | 1.6 µM | 1.5 µM | 2.52 µM | 2.26 µM | 1.09 µM | 2.98 µM | 1.8 µM | 2.26 µM
Cc1cn(C2CC(F)C(CO)O2)c(=O)[nH]c1=O (stereo not given) | > 100 µM | > 100 µM | > 100 µM | > 100 µM | > 100 µM | > 100 µM | > 100 µM | > 100 µM | > 100 µM | > 100 µM | > 100 µM | > 100 µM | > 100 µM | > 100 µM | > 100 µM | > 100 µM | > 100 µM | > 100 µM | > 100 µM | > 100 µM
CC(C)(C)N1CCC1C(N)=O (stereo not given) | > 100 µM | > 100 µM | > 100 µM | > 100 µM | > 100 µM | > 100 µM | > 100 µM | > 100 µM | > 100 µM | > 100 µM | > 100 µM | > 100 µM | > 100 µM | > 100 µM | > 100 µM | > 100 µM | > 100 µM | > 100 µM | > 100 µM | > 100 µM
C=C1[C@@H](C)[C@H]2[C@H](Cc3ccccc3)NC(=O)[C@]23OC(=O)/C=C/[C@H](O)CCC[C@@H](C)C/C=C/[C@H]3[C@@H]1O | > 100 µM | > 100 µM | 23.4 µM | > 92.2 µM | 91.1 µM | > 100 µM | 27.9 µM | 63.1 µM | > 100 µM | 47 µM | – | – | – | – | – | – | – | – | – | –
O=c1cc(C(F)(F)F)c2cc3c(cc2o1)NCCC3 | > 100 µM | > 100 µM | > 100 µM | > 100 µM | > 100 µM | > 100 µM | 0.987 µM | > 100 µM | > 100 µM | > 100 µM | – | – | – | – | – | – | – | – | – | –
COc1ccc(-n2c(SCc3cc(OC)c(OC)c(OC)c3)nc3ccc(C)cc3c2=O)c(OC)c1 | 11.9 µM | > 100 µM | > 100 µM | 72.7 µM | > 100 µM | > 100 µM | > 100 µM | > 100 µM | > 100 µM | > 100 µM | 3.87 µM | 3.85 µM | > 100 µM | 3.58 µM | 2.68 µM | 7.93 µM | 4 µM | 3.39 µM | 6.39 µM | 93.8 µM
O=C(O)c1cc2ccccc2c(O)c1O | 31.4 µM | 30.7 µM | 42.7 µM | 28.9 µM | 41.5 µM | 32.1 µM | 31.7 µM | 8.18 µM | 57.7 µM | 40.7 µM | – | – | – | – | – | – | – | – | – | –
